Measurements published in patent US20250064789A1, “KETOAMIDE DERIVATIVES AND PHARMACEUTICAL USES THEREOF” (priority 2022, published 2025).
Read-outs that look alike come from different tables or passages of the source.

Biological target: recombinant SARS-CoV-2 M^pro (Severe acute respiratory syndrome coronavirus 2 (2019-nCoV) (SARS-CoV-2), UniProt P0DTD1)
Test: Inhibition of SARS-CoV-2 M^pro enzyme activity (fluorescent substrate assay)
Type: biochemical
[1] = inhibition of SARS-CoV-2 M^pro enzyme activity, values given in μM, read-out: IC50
[2] = inhibition of SARS-CoV-2 M^pro enzyme activity, values in nM, read-out: IC50

Row | Structure (SMILES) | IC50 [2] | also measured
1 | C[C@@H](OCc1ccccc1)C(=O)N[C@H](Cc1ccccc1)C(=O)C(=O)NC(c1ccccc1)c1ccccn1 (stereo partly shown) [Compound 32] |  | IC50 [1]: > 5 µM
2 | C[C@@H](OCc1ccccc1)C(=O)N[C@H](Cc1ccccc1)C(=O)C(=O)NCc1ncccc1Cl [Compound 34] |  | IC50 [1]: > 5 µM
3 | C[C@@H](OCc1ccccc1)C(=O)N[C@H](Cc1ccccc1)C(=O)C(=O)NCc1ccc(Cl)cn1 [Compound 36] | 0.0309 ± 0.0002 µM | 
4 | C[C@@H](OCc1ccccc1)C(=O)N[C@H](Cc1ccccc1)C(=O)C(=O)NCc1ccc(C(F)(F)F)cn1 [Compound 38] | 0.7963 ± 0.0011 µM | 
5 | COc1cccnc1CNC(=O)C(=O)[C@@H](Cc1ccccc1)NC(=O)[C@@H](C)OCc1ccccc1 [Compound 39] |  | IC50 [1]: > 5 µM
6 | C[C@@H](OCc1ccccc1)C(=O)N[C@H](Cc1ccccc1)C(=O)C(=O)N(C)Cc1ccccn1 [Compound 41] |  | IC50 [1]: > 2.5 µM
7 | C[C@@H](OCc1ccc(F)cc1)C(=O)N[C@H](Cc1ccccc1)C(=O)C(=O)NCc1ccc(Cl)cn1 [Compound 42] | 0.0176 ± 0.0004 µM | 
8 | CC(C)(OCc1ccc(Cl)cc1)C(=O)N[C@H](Cc1ccccc1)C(=O)C(=O)NCc1ccc(Cl)cn1 [Compound 43] | 0.0202 ± 0.0025 µM | 
9 | C[C@@H](OCc1ccc(Cl)c(Cl)c1)C(=O)N[C@H](Cc1ccccc1)C(=O)C(=O)NCc1ccc(Cl)cn1 [Compound 44] | 0.0217 ± 0.0021 µM | 
10 | C[C@@H](OCc1ccc(Cl)cc1)C(=O)N[C@H](Cc1ccccc1)C(=O)C(=O)NCc1ccc(Cl)cn1 [Compound 45] | 0.0147 ± 0.001 µM | 
11 | C[C@@H](OCc1cc(F)cc(Cl)c1)C(=O)N[C@H](Cc1ccccc1)C(=O)C(=O)NCc1ccc(Cl)cn1 [Compound 46] | 0.0133 ± 0.0001 µM | 
12 | C[C@@H](OCc1cccc(OC(F)(F)F)c1)C(=O)N[C@H](Cc1ccccc1)C(=O)C(=O)NCc1ccc(Cl)cn1 [Compound 47] | 0.0141 ± 0.0001 µM | 
13 | CC[C@@H](OCc1ccc(F)cc1)C(=O)N[C@H](Cc1ccccc1)C(=O)C(=O)NCc1ccc(Cl)cn1 [Compound 48] | 0.0309 ± 0.0003 µM | 
14 | CC(C)[C@@H](OCc1ccc(F)cc1)C(=O)N[C@H](Cc1ccccc1)C(=O)C(=O)NCc1ccc(Cl)cn1 [Compound 49] | 0.0147 ± 0.0004 µM | 
15 | C[C@@H](OCc1ccc(F)cc1)C(=O)N[C@H](Cc1ccc2ccccc2c1)C(=O)C(=O)NCc1ccc(Cl)cn1 [Compound 53] | 0.1878 ± 0.0007 µM | 
16 | O=C(COc1ccc(F)cc1)N[C@H](Cc1ccccc1)C(=O)C(=O)NCc1ccccn1 [Compound 54] | 0.2984 ± 0.0029 µM | 
17 | COc1ccc(OC(C)C(=O)N[C@H](Cc2ccccc2)C(=O)C(=O)NCc2ccccn2)cc1 (stereo partly shown) [Compound 57] | 0.351 ± 0.0068 µM | 
18 | CN(OCc1ccccc1)C(=O)N[C@H](Cc1ccccc1)C(=O)C(=O)NCc1ccccn1 [Compound 58, (R)-3-(3-(benzyloxy)-3-methylureido)-2-oxo-4-phenyl-N-(pyridin-2-ylmethyl)butyramide] | 0.1009 ± 0.0001 µM | 
19 | C[C@@H](NC(=O)c1ccc(F)cc1)C(=O)N[C@H](Cc1ccccc1)C(=O)C(=O)NCc1ccc(Cl)cn1 [Compound 59] | 0.0266 ± 0.0018 µM | 
20 | C[C@@H](NC(=O)c1cc(F)cc(Cl)c1)C(=O)N[C@H](Cc1ccccc1)C(=O)C(=O)NCc1ccc(Cl)cn1 [Compound 60] | 0.0249 ± 0.0001 µM | 
21 | C[C@@H](NC(=O)COc1ccccc1)C(=O)N[C@H](Cc1ccccc1)C(=O)C(=O)NCc1ccccn1 [Compound 61] | 0.0118 ± 0.0001 µM | 
22 | C[C@@H](NC(=O)Cc1cc2ccccc2o1)C(=O)N[C@H](Cc1ccccc1)C(=O)C(=O)NCc1ccccn1 [Compound 62] | 0.0278 ± 0.0009 µM | 

Row | Structure (SMILES) | IC50 [2] | also measured
23 | COc1ccc(CCCC(=O)N[C@H](C)C(=O)N[C@H](Cc2ccccc2)C(=O)C(=O)NCc2ccccn2)cc1 [Compound 63] | 0.0196 ± 0.0003 µM | 
24 | C[C@@H](NC(=O)Cc1cc(C(C)(C)C)nn1-c1ccccc1)C(=O)N[C@H](Cc1ccccc1)C(=O)C(=O)NCc1ccccn1 [Compound 64] | 0.0161 ± 0.0002 µM | 
25 | C[C@@H](NC(=O)C(C#N)Cc1ccccc1)C(=O)N[C@H](Cc1ccccc1)C(=O)C(=O)NCc1ccccn1 (stereo partly shown) [Compound 65] | 0.0212 ± 0.0008 µM | 
26 | C[C@@H](NC(=O)CCc1ccccc1)C(=O)N[C@H](Cc1ccccc1)C(=O)C(=O)NCc1ccccn1 [Compound 66] | 0.0117 ± 0.0001 µM | 
27 | COc1ccc(CCC(=O)N[C@H](C)C(=O)N[C@H](Cc2ccccc2)C(=O)C(=O)NCc2ccccn2)cc1 [Compound 67] | 0.0173 ± 0.0016 µM | 
28 | CC(C)c1ccc(OCC(=O)N[C@H](C)C(=O)N[C@H](Cc2ccccc2)C(=O)C(=O)NCc2ccccn2)cc1 [Compound 68] | 0.0124 ± 0.0011 µM | 
29 | C[C@@H](NC(=O)COc1ccc(OC(F)(F)F)cc1)C(=O)N[C@H](Cc1ccccc1)C(=O)C(=O)NCc1ccccn1 [Compound 69] | 0.0177 ± 0.0015 µM | 
30 | C[C@@H](NC(=O)COc1ccccc1F)C(=O)N[C@H](Cc1ccccc1)C(=O)C(=O)NCc1ccccn1 [Compound 70] | 0.0229 ± 0.0003 µM | 
31 | C[C@@H](NC(=O)COc1ccc(Cl)c(Cl)c1)C(=O)N[C@H](Cc1ccccc1)C(=O)C(=O)NCc1ccccn1 [Compound 71] | 0.0109 ± 0.0005 µM | 
32 | C[C@@H](NC(=O)c1cc2ccccc2o1)C(=O)N[C@H](Cc1ccccc1)C(=O)C(=O)NCc1ccccn1 [Compound 72] | 0.0277 ± 0.0041 µM | 
33 | C[C@@H](NC(=O)C(C)(C)c1ccccc1)C(=O)N[C@H](Cc1ccccc1)C(=O)C(=O)NCc1ccccn1 [Compound 73] | 0.0258 ± 0.0005 µM | 
34 | C[C@@H](NC(=O)C1(c2ccccc2)CC1)C(=O)N[C@H](Cc1ccccc1)C(=O)C(=O)NCc1ccccn1 [Compound 74] | 0.0233 ± 0.0004 µM | 
35 | C[C@@H](NC(=O)Cc1ccc(F)cc1)C(=O)N[C@H](Cc1ccccc1)C(=O)C(=O)NCc1ccccn1 [Compound 75] | 0.0193 ± 0.0007 µM | 
36 | C[C@@H](NC(=O)Cc1ccc(Cl)cc1)C(=O)N[C@H](Cc1ccccc1)C(=O)C(=O)NCc1ccccn1 [Compound 76] | 0.023 ± 0.0011 µM | 
37 | COc1ccc(CC(=O)N[C@H](C)C(=O)N[C@H](Cc2ccccc2)C(=O)C(=O)NCc2ccccn2)cc1 [Compound 77] | 0.0241 µM | 
38 | C[C@@H](NC(=O)Cc1ccc(C(F)(F)F)cc1)C(=O)N[C@H](Cc1ccccc1)C(=O)C(=O)NCc1ccccn1 [Compound 78] | 0.0532 ± 0.0005 µM | 
39 | C[C@@H](NC(=O)Cc1cc(F)cc(F)c1)C(=O)N[C@H](Cc1ccccc1)C(=O)C(=O)NCc1ccccn1 [Compound 79] | 0.0109 ± 0.0001 µM | 
40 | C[C@@H](NC(=O)COC(F)(F)F)C(=O)N[C@H](Cc1ccccc1)C(=O)C(=O)NCc1ccccn1 [Compound 80] | 0.0586 ± 0.0032 µM | 
41 | C[C@@H](NC(=O)C(C)(C)Oc1ccc([Si](C)(C)C)cc1Cl)C(=O)N[C@H](Cc1ccccc1)C(=O)C(=O)NCc1ccccn1 [Compound 81] |  | IC50 (IC50, inhibition of SARS-CoV-2 M^pro enzyme activity, values in nM): 0.0279 ± 0.0055 µM
42 | C[C@@H](NC(=O)C(C)(C)Oc1ccc(Cl)cc1F)C(=O)N[C@H](Cc1ccccc1)C(=O)C(=O)NCc1ccccn1 [Compound 82] | 0.0058 ± 0.0001 µM | 
43 | CC(C)C(Oc1ccc(Cl)cc1)C(=O)N[C@H](C)C(=O)N[C@H](Cc1ccccc1)C(=O)C(=O)NCc1ccccn1 (stereo partly shown) [Compound 83] | 0.0067 ± 0.0001 µM | 
44 | C[C@@H](NC(=O)COc1ccc(Cl)cc1)C(=O)N[C@H](Cc1ccccc1)C(=O)C(=O)NCc1ccccn1 [Compound 84] | 0.04 ± 0.0024 µM | 

Row | Structure (SMILES) | IC50 [2] | also measured
45 | C[C@@H](NC(=O)C1CCc2cc(F)ccc2O1)C(=O)N[C@H](Cc1ccccc1)C(=O)C(=O)NCc1ccccn1 (stereo partly shown) [Compound 85] | 0.0567 ± 0.0027 µM | 
46 | C[C@@H](NC(=O)COc1ccc(Cl)cc1F)C(=O)N[C@H](Cc1ccccc1)C(=O)C(=O)NCc1ccccn1 [Compound 86] | 0.0705 ± 0.0025 µM | 
47 | COc1ccc(OC(C)C(=O)N[C@H](C)C(=O)N[C@H](Cc2ccccc2)C(=O)C(=O)NCc2ccccn2)cc1 (stereo partly shown) [Compound 87] | 0.0421 ± 0.001 µM | 
48 | CC(Oc1ccc(Cl)cc1Cl)C(=O)N[C@H](C)C(=O)N[C@H](Cc1ccccc1)C(=O)C(=O)NCc1ccccn1 (stereo partly shown) [Compound 88] | 0.0244 µM | 
49 | COc1ccccc1OCC(=O)N[C@H](C)C(=O)N[C@H](Cc1ccccc1)C(=O)C(=O)NCc1ccccn1 [Compound 89] | 0.0409 ± 0.0012 µM | 
50 | C[C@@H](NC(=O)COc1ccc2ccccc2c1)C(=O)N[C@H](Cc1ccccc1)C(=O)C(=O)NCc1ccccn1 [Compound 91] | 0.0484 ± 0.002 µM | 
51 | COc1ccc(OCC(=O)N[C@H](C)C(=O)N[C@H](Cc2ccccc2)C(=O)C(=O)NCc2ccccn2)cc1 [Compound 92] | 0.0266 ± 0.0004 µM | 
52 | C[C@@H](NC(=O)COc1cccc(F)c1)C(=O)N[C@H](Cc1ccccc1)C(=O)C(=O)NCc1ccccn1 [Compound 93] | 0.0288 ± 0.001 µM | 
53 | C[C@@H](NC(=O)C(F)Oc1ccc(Cl)cc1Cl)C(=O)N[C@H](Cc1ccccc1)C(=O)C(=O)NCc1ccccn1 (stereo partly shown) [Compound 94] | 0.0135 ± 0.0013 µM | 
54 | C[C@@H](NC(=O)C(C)(C)Sc1ccc(Cl)cc1Cl)C(=O)N[C@H](Cc1ccccc1)C(=O)C(=O)NCc1ccccn1 [Compound 95] | 0.0082 ± 0.0011 µM | 
55 | CC(Oc1ccc(C(F)(F)F)cc1)C(=O)N[C@H](C)C(=O)N[C@H](Cc1ccccc1)C(=O)C(=O)NCc1ccccn1 (stereo partly shown) [Compound 96] | 0.0202 ± 0.0007 µM | 
56 | CC(Oc1ccc(C2CC2(Cl)Cl)cc1)C(=O)N[C@H](C)C(=O)N[C@H](Cc1ccccc1)C(=O)C(=O)NCc1ccccn1 (stereo partly shown) [Compound 97] | 0.0372 ± 0.0048 µM | 
57 | C[C@@H](NC(=O)c1ccc(Cl)c(F)c1)C(=O)N[C@H](Cc1ccccc1)C(=O)C(=O)NCc1ccccn1 [Compound 98] | 0.0407 ± 0.0019 µM | 
58 | C[C@@H](NC(=O)c1ccc(Cl)c(Cl)c1)C(=O)N[C@H](Cc1ccccc1)C(=O)C(=O)NCc1ccccn1 [Compound 99] | 0.0278 ± 0.0011 µM | 
59 | C[C@@H](NC(=O)c1ccc(Cl)cc1F)C(=O)N[C@H](Cc1ccccc1)C(=O)C(=O)NCc1ccccn1 [Compound 100] | 0.013 ± 0.0014 µM | 
60 | C[C@@H](NC(=O)c1cc(F)cc(Cl)c1)C(=O)N[C@H](Cc1ccccc1)C(=O)C(=O)NCc1ccccn1 [Compound 101] | 0.0216 ± 0.0008 µM | 
61 | C[C@@H](NC(=O)C1Cc2ccccc2O1)C(=O)N[C@H](Cc1ccccc1)C(=O)C(=O)NCc1ccccn1 (stereo partly shown) [Compound 102] | 0.0266 ± 0.0004 µM | 
62 | C[C@@H](NC(=O)c1ccc(F)c(S(C)(=O)=O)c1)C(=O)N[C@H](Cc1ccccc1)C(=O)C(=O)NCc1ccccn1 [Compound 103] | 0.0288 ± 0.001 µM | 
63 | C[C@@H](NC(=O)C1CC1c1ccccc1)C(=O)N[C@H](Cc1ccccc1)C(=O)C(=O)NCc1ccccn1 (stereo partly shown) [Compound 104] | 0.0168 ± 0.0011 µM | 
64 | C[C@@H](NC(=O)c1cc(F)cc(C#N)c1)C(=O)N[C@H](Cc1ccccc1)C(=O)C(=O)NCc1ccccn1 [Compound 105] | 0.0253 ± 0.0017 µM | 
